Laboratory results: patent US20100204156A1, “USE OF THYMOPENTIN AS A THERAPEUTIC AGENT” (priority 2007, published 2010)
Residues, ends and D or L forms follow the SMILES beside them.

What was measured:
CEM-SS cells = test: Cell viability / cytotoxicity (MTS) in the HIV-1 assay; details: peptide 10 micrograms per ml, MTS
[1] = system: spleen cells of Ovalbumin-immunized Balb/c mice; test: Th1/Th2 cytokine profiling assay (Mouse Th1/Th2 Cytokine CBA Kit); assay type: cell-based; details: test peptide 10 micrograms per ml; Ovalbumin restimulation, 72 hours
Excerpt: The Balb/c mice (originated in 1923, it is a popular strain and is used in many different research disciplines. Also classified as an inbred from the production of 20 or more successive brother-sister matings, the Balb/c mouse is albino and small in size) were immunized on Days 1, 15, and 29 with Ovalbumin (Ovalbumin is the main protein found in egg white, commonly used to stimulate an immunological reaction in test animals) in PBS (5 micrograms/injection). On day 50, spleens of the mice were harvested (3 weeks after last boost with Ovalbumin). […] Thereafter, additional Ovalbumin was added to the cells at 10 micrograms/ml for in vitro restimulation of the cells. 72 hours later, cell supernatants were harvested and assayed using the Becton Dickinson Mouse Th1/Th2 Cytokine CBA Kit. This kit can be used to measure Interleukin-2 (IL-2), Interleukin-4 (IL-4), Interleukin-5 (IL-5), Interferon-γ (IFN-γ), and Tumor Necrosis Factor-α (TNF-α) protein levels in a single sample. The kit performance has been optimized for analysis of physiologically relevant concentrations ([…] levels) of specific cytokine proteins in tissue culture supernatants and serum samples.

HUVEC = test: Endothelial tube formation assay; assay type: cell-based, Human; details: 20 hours, test peptide 10 micrograms per ml
Excerpt: Positive control was vehicle only.

Pseudomonas aeruginosa = Pseudomonas aeruginosa assay; assay type: cell-based; details: Pseudomonas aeruginosa growth; peptide 10 micrograms per ml; read visually
Human A549 cells [2] = test: Apoptosis induction assay (Annexin-5); assay type: cell-based; details: 24 hours, test peptide 10 micrograms per ml
Excerpt: Human A549 cells (carcinomic human alveolar basal epithelial cells) were utilized in the experiments employing the Annexin-5 apoptosis assay. Annexin-5 is a member of a highly conserved protein family that binds acidic phospholipids in a calcium-dependent manner. […] Phosphatidylserine is translocated from the inner side of the plasma membrane to the outer layer when cells undergo death by apoptosis or cell necrosis and serves as a signal by which cell destined for death are recognized by phagocytes. Test peptide—10 micrograms per ml—were exposed for 24 hours to the A549 cells before they were analyzed for signs of apoptosis.

[3] = system: Primary Human endothelial cells (HUVEC); test: Endothelial cell migration assay; assay type: cell-based; details: 22 hours, test peptide 10 micrograms per ml
HCMV strain AD169 = test: HCMV plaque reduction assay in MRC-5 cells; assay type: cell-based; details: HCMV AD169 in MRC-5 cells; peptide 10 micrograms per ml; 7-10 days
Excerpt: (§1) Ganciclovir was used as positive control.

[4] = Cell viability / cytotoxicity (MTS) in the HIV-1 assay; details: human, CEM-SS cells
[5] = Cytotoxicity testing (CellTiter 96) in MRC-5 cells; assay type: cell-based; details: human, MRC-5 cells (human embryonal lung fibroblasts), 6 days incubation, read-out: % Cell viability
Excerpt: as §1

Streptococcus pneumoniae = Streptococcus pneumoniae assay; assay type: cell-based; details: Streptococcus pneumoniae growth; peptide 10 micrograms per ml; read visually
[6] = system: Human Peripheral Blood Mononuclear Cells (PBMC); test: B cell proliferation assay (SAC plus Interleukin-2, 3H-thymidine); assay type: cell-based; details: test peptide 10 micrograms per ml
Protocol: Human Peripheral Blood Mononuclear Cells (PBMC) were obtained from normal human donors. The B cell proliferation was induced by stimulation of the cells with the B cell mitogen Staphylococcus aureus Cowans I (SAC) plus Interleukin-2, either in the absence (positive proliferation control), or in the presence of test peptide—10 micrograms per ml—to examine their effects on the B cell response. 10^5/well PBMC were plated in 96-well microtiter plates and assayed in duplicate with the peptide. Cell cultures were incubated at 37° C. for 3 days in a 5% CO2 incubator and were thereafter pulsed with 1 microCi/well ^3H-thymidine for additional 12 hours of culture. At the end of incubation time, the plates were harvested and the cells counted by liquid scintillation for the incorporation of ^3H-thymidine as a measure of B cell proliferation.

Human A549 cells [7] = test: Propidium iodide cell cycle assay; assay type: cell-based; details: 24 hours, test peptide 10 micrograms per ml, FACS
Excerpt: Human A549 cells (carcinomic human alveolar basal epithelial cells) were utilized in the experiments employing the Propidium iodide cell cycle assay. The eukaryotic cell cycle is a series of events that take place in a cell leading to its replication. The regulation of the cell cycle involves steps crucial to the cell, including detecting and repairing genetic damage, and provision of various checks to prevent uncontrolled cell division. The molecular events that control the cell cycle are ordered and directional; that is, each process occurs in a sequential fashion. The cell cycle consists of four distinct phases: G1 phase, S phase, G2 phase (collectively known as interphase) and M phase. M phase is itself composed of two tightly coupled processes: mitosis, in which the cell's chromosomes are divided between the two daughter cells, and cytokinesis, in which the cell's cytoplasm divides forming distinct cells. Activation of each phase is dependent on the proper progression and completion of the previous one. Cells that have temporarily or reversibly stopped dividing are said to have entered a state of quiescence called Go phase. The relatively brief M phase consists of nuclear division and cytoplasmic division. The first phase within interphase, from the end of the previous M phase till the beginning of DNA synthesis is called G1 (G indicating gap or growth). During this phase the biosynthetic activities of the cell resume at a high rate. This phase is marked by synthesis of various enzymes that are required in S phase, mainly those needed for DNA replication. The ensuing S phase starts when DNA synthesis commences; when it is complete, all of the chromosomes have been replicated. The cell then enters the G2 phase, which lasts until the cell enters mitosis. Significant protein synthesis occurs during this phase, mainly involving the production of microtubules, which are required during the process of mitosis. […]
Propidium iodide is an intercalating agent and a fluorescent molecule that can be used to stain DNA. […] After incubation for 40 min at 37° C., cells were analyzed in the FACS.

[8] = Cell viability (dye uptake) in the HBV assay; assay type: cell-based; details: human, HepG2-2.2.15 cells, test peptide 10 micrograms per ml
Human A549 cells [9] = test: Apoptosis prevention assay (Annexin-5, C2 ceramide); assay type: cell-based; details: A549 cells pretreated 30 min, test peptide 10 micrograms per ml
Excerpt: Human A549 cells (carcinomic human alveolar basal epithelial cells) were utilized in the experiments employing the Annexin-5 apoptosis assay. Annexin-5 is a member of a highly conserved protein family that binds acidic phospholipids in a calcium-dependent manner. […] Phosphatidylserine is translocated from the inner side of the plasma membrane to the outer layer when cells undergo death by apoptosis or cell necrosis and serves as a signal by which cell destined for death are recognized by phagocytes. A549 cells were pretreated for 30 min with test peptide—10 micrograms per ml—followed by the exposure to C2 ceramide. Ceramide mediates cell apoptosis through the activation of the mitogen activating protein kinase (MAPK) and the stress activated kinase (JNK/SAPK). C2 ceramide is a synthetic, membrane soluble analog of ceramide.

MRSA = test: Methicillin Resistant Staphylococcus Aureus (MRSA) assay; assay type: cell-based; details: MRSA growth; peptide 10 micrograms per ml; read visually
[10] = system: hepatitis B virus (HBV) ayw strain; test: HBV assay: secreted HBV DNA by real-time TaqMan PCR in HepG2-2.2.15 cells; assay type: cell-based; details: test peptide 10 micrograms per ml; six days; HBV DNA in supernatant
Excerpt: HepG2-2.2.15 is a stable cell line containing the hepatitis B virus (HBV) ayw strain genome (ATCC Cat. No. CRL-11997). Antiviral compounds blocking any late step of viral replication such as transcription, translation, pregenome encapsidation, reverse transcription, particle assembly and release can be identified and characterized using this cell line. In this assay, an active compound will reduce the production of secreted HBV from cells, measured by utilizing real time quantitative PCR (TaqMan) assay to directly and accurately measure HBV DNA copies.
HepG2-2.2.15 cells were plated in 96-well microtiter plates. After 16-24 hours the confluent monolayer of HepG2-2.2.15 cells was washed and the medium was replaced with complete medium containing test peptide—10 micrograms per ml—in duplicate. […] Six days following the initial administration of the peptide, the cell culture supernatants was collected, treated with pronase and DNAse and then used in a real-time quantitative TaqMan PCR assay. The PCR-amplified HBV DNA was detected in real-time by monitoring increases in fluorescence signals that result from the exonucleolytic degradation of a quenched fluorescence probe molecule that hybridizes to the amplified HBV DNA. […] Antiviral activity was calculated from the reduction in HBV DNA levels (% virus control). […]

HIV-1IIIB = test: HIV-1 antiviral assay (CPE reduction, MTS) in CEM-SS cells; assay type: cell-based; details: peptide 10 micrograms per ml, 6 days post-infection
[11] = system: Human Peripheral Blood Mononuclear Cells (PBMC); test: T cell proliferation assay (PHA, 3H-thymidine); assay type: cell-based; details: test peptide 10 micrograms per ml
Protocol: Human Peripheral Blood Mononuclear Cells (PBMC) were obtained from normal human donors. The T cell proliferation was induced by stimulation of the cells with the T cell mitogen phytohemagglutinin (PHA), either in the absence (positive proliferation control), or in the presence of test peptide—10 micrograms per ml—to examine their effects on the T cell proliferating response. 10^5/well PBMC were plated in 96-well microtiter plates and assayed in duplicate with the peptide. Cell cultures were incubated at 37° C. for 3 days in a 5% CO2 incubator and were thereafter pulsed with 1 microCi/well ^3H-thymidine for additional 12 hours of culture. At the end of incubation time, the plates were harvested and the cells counted by liquid scintillation for the incorporation of ^3H-thymidine as a measure of T cell proliferation.

[12] = system: macrophages differentiated from Human PBMC; test: TNF alpha production assay (LPS-stimulated macrophages, ELISA); assay type: cell-based; details: test peptide 10 micrograms per ml, lipopolysaccharide 200 ng/ml, overnight
Protocol: Human Peripheral Blood Mononuclear Cells (PBMC) were obtained from normal human donors. The macrophages were prepared by adherence of PBMC to the plastic wells of the plates. […] Not stimulated macrophages served as negative background control. After overnight incubation, supernatants from the control and LPS-stimulated cultures were harvested and assayed for TNF alpha production employing a TNF alpha specific ELISA.

Cc1cn([C@H]2C[C@H](N=[N+]=[N-])[C@@H](CO)O2)c(=O)[nH]c1=O [AZT, reference compound]
% Cell viability (CEM-SS cells): 97%

CC(C)[C@H](NC(=O)[C@H](CC(=O)O)NC(=O)[C@H](CCCCN)NC(=O)[C@@H](N)CCCN=C(N)N)C(=O)N[C@@H](Cc1ccc(O)cc1)C(=O)O [Thymopentin, Arg-Lys-Asp-Val-Tyr-OH] (H-RKDVY-OH)
IFNγ spleen cells; TH1 response (% of control) [1]: 62.0 % of control
IL-2 spleen cells (% of control) [1]: 122.2 % of control
IL-4 spleen cells; TH2 response (% of control) [1]: 170.6 % of control
IL-5 spleen cells; TH2 response (% of control) [1]: 73.8 % of control
TNF-a spleen cells; TH1 response (% of control) [1]: 109.6 % of control
% inhibition of tube formation (HUVEC): 31%
% inhibition (Pseudomonas aeruginosa): 0.0%
% of induction (Human A549 cells [2]): 0.6%
% inhibition of migration [3]: 7%
% plaque reduction (HCMV strain AD169): 1.4%
viability at 10 micrograms per ml [4]: 100%
viability at 144 h [5]: 100%
% inhibition (Streptococcus pneumoniae): 0.0%
% of SAC/IL2 induced control [6]: 94.4%
Cell cycle analysis G0/G1 (Human A549 cells [7]): 54.6
Cell cycle analysis G2/M (Human A549 cells [7]): 10.7
Cell cycle analysis S (Human A549 cells [7]): 34.8
viability at 144 h, 10 micrograms per ml [8]: 100%
% prevention of ceramide induced apoptosis (Human A549 cells [9]): 0.0%
% inhibition (MRSA): 0.0%
% inhibition of HBV replication in HEP G2 cells [10]: 6.2%
% CPE reduction in HIV-1 infected CEM-SS cells (HIV-1IIIB): 0.0%
% of PHA induced control [11]: 89.1%
% of LPS induction [12]: 108.9%
